Values of other authors, collected in US20260130964A1, “PHARMACEUTICAL COMPOSITION COMPRISING HIGH PAY LOAD GINGER EXTRACT GRANULES AND PROCESS FOR PREPARATION THEREOF” (INDIA GLYCOLS LIMITED, priority 2022, published 2026).

Details: in vivo, po

For `CCCCC[C@H](O)CC(=O)CCc1ccc(O)c(OC)c1` [Example 6-gingerol, 6-gingerol], the biological half-life is given as < 2 hrs.
